Laboratory results from ChEMBL document CHEMBL1201862, “PubChem BioAssay data set” (2004).
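Protocol summary: plate cells (96-well), add compound at 5 concentrations, incubate 48 h, interpolate endpoints linearly. GI50 marks 50% less growth.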 Active and inactive are the calls of the source. Rule as the data show it: active = GI50 up to about 1.1 µM and inactive = higher.

Tests used:
Assay in all cases: NCI anticancer screen, dose series, 48 h
[1] = test system: BT-549
[2] = test system: NCI-H226
[3] = test system: NCI-H522
[4] = test system: UACC-62
[5] = test system: SK-MEL-2
[6] = test system: A498
[7] = test system: SNB-75
[8] = test system: MDA-MB-231
[9] = test system: HL-60
[10] = test system: EKVX
[11] = test system: DMS-273
[12] = test system: HOP-92
[13] = test system: SW-620
[14] = test system: SN12C
[15] = test system: DU-145
[16] = test system: HCT-116
[17] = test system: SK-OV-3
[18] = test system: TK-10
[19] = test system: KM12
[20] = test system: Malme-3M
[21] = test system: Hs-578T
[22] = test system: COLO 205
[23] = test system: RPMI-8226
[24] = test system: HT-29
[25] = test system: NCI-H460
[26] = test system: M19-MEL
[27] = test system: KM-20L2
[28] = test system: SF-268
[29] = test system: NCI-H23
[30] = test system: CAKI-1
[31] = test system: LXFL 529
[32] = test system: UACC-257
[33] = test system: SK-MEL-5
[34] = test system: SNB-19
[35] = test system: HCC 2998
[36] = test system: U-251
[37] = test system: UO-31
[38] = test system: SK-MEL-28
[39] = test system: HCT-15
[40] = test system: OVCAR-4
[41] = test system: DLD-1
[42] = test system: A549
[43] = test system: SF-539
[44] = test system: SF-295
[45] = test system: ACHN
[46] = test system: MDA-MB-435
[47] = test system: PC-3
[48] = test system: LOX IMVI
[49] = test system: OVCAR-8
[50] = test system: OVCAR-3
[51] = test system: T47D
[52] = test system: IGROV-1
[53] = test system: RXF 393
[54] = test system: DMS-114
[55] = test system: MOLT-4
[56] = test system: SR
[57] = test system: HOP-18
[58] = test system: NCI/ADR-RES
[59] = test system: SNB-78
[60] = test system: M14
[61] = test system: MCF7
[62] = test system: K562
[63] = test system: CCRF-CEM
[64] = test system: XF498
[65] = test system: OVCAR-5
[66] = test system: HOP-62
[67] = test system: 786-0

`C/C(=N\NC(=S)N1CCN(C2CCCCCC2)CC1)c1ccccn1` was tested, and the GI50 [1] was 1270 nM (inactive), the GI50 [2] was 65.5 nM (active) and the GI50 [3] was < 25.3 nM (active). For the same molecule, the GI50 [4] was < 12 nM (active), the GI50 [5] was 481 nM (active) and the GI50 [6] was 1490 nM (inactive). The GI50 [7] was 1710 nM (inactive), the GI50 [8] was 1310 nM (inactive) and the GI50 [9] was 10 nM (active). For the same molecule, the GI50 [10] was < 12.1 nM (active), the GI50 [11] was 10 nM (active) and the GI50 [12] was 47.3 nM (active). For the same molecule, the GI50 [13] was 10 nM (active), the GI50 [14] was 111 nM (active) and the GI50 [15] was 1020 nM (active). For the same molecule, the GI50 [16] was 10 nM (active), the GI50 [17] was 56.5 nM (active) and the GI50 [18] was 740 nM (active). The GI50 [19] was 19.7 nM (active), the GI50 [20] was 105 nM (active) and the GI50 [21] was 1490 nM (inactive). The GI50 [22] was 10 nM (active), the GI50 [23] was 10 nM (active) and the GI50 [24] was < 34.3 nM (active). The GI50 [25] was 10 nM (active), the GI50 [26] was 340 nM (active) and the GI50 [27] was 10 nM (active). The GI50 [28] was 337 nM (active), the GI50 [29] was 10 nM (active) and the GI50 [30] was 37 nM (active). For the same molecule, the GI50 [31] was 1 nM (active), the GI50 [32] was 10 nM (active) and the GI50 [33] was 24.9 nM (active). The GI50 [34] was 1710 nM (inactive), the GI50 [35] was < 48.5 nM (active) and the GI50 [36] was < 11.7 nM (active). For the same molecule, the GI50 [37] was 100 nM (active), the GI50 [38] was 238 nM (active) and the GI50 [39] was 10 nM. For the same molecule, the GI50 [40] was 41 nM (active), the GI50 [41] was 10 nM (active) and the GI50 [42] was < 37.9 nM (active). The GI50 [43] was 92.7 nM (active), the GI50 [44] was < 47.6 nM (active) and the GI50 [45] was 145 nM (active). The GI50 [46] was 161 nM (active), the GI50 [47] was 10 nM (active) and the GI50 [48] was 10 nM (active). The GI50 [49] was 10 nM (active), the GI50 [50] was 10 nM (active) and the GI50 [51] was 10 nM (active). The GI50 [52] was 10 nM (active), the GI50 [53] was 212 nM (active) and the GI50 [54] was 10 nM (active). The GI50 [55] was 10 nM (active), the GI50 [56] was 10 nM (active) and the GI50 [57] was 2060 nM (inactive). For the same molecule, the GI50 [58] was 10 nM (active), the GI50 [59] was 2780 nM (inactive) and the GI50 [60] was 10 nM (active). The GI50 [61] was 10 nM (active), the GI50 [62] was 10 nM (active) and the GI50 [63] was 10 nM (active).

With `O=C(O)NC(c1ccccc1)C(NC(=O)c1ccccc1)c1ccccc1` (centres undefined) the GI50 [64] was > 100000 nM (inactive), the GI50 [4] was > 100000 nM (inactive) and the GI50 [5] was > 100000 nM (inactive). For the same molecule, the GI50 [6] was > 100000 nM (inactive), the GI50 [7] was > 100000 nM (inactive) and the GI50 [10] was > 100000 nM (inactive). For the same molecule, the GI50 [12] was > 100000 nM (inactive), the GI50 [13] was > 100000 nM (inactive) and the GI50 [14] was > 100000 nM (inactive). For the same molecule, the GI50 [16] was > 100000 nM (inactive), the GI50 [18] was > 100000 nM (inactive) and the GI50 [19] was > 100000 nM (inactive). The GI50 [20] was > 100000 nM (inactive), the GI50 [22] was > 100000 nM (inactive) and the GI50 [23] was > 100000 nM (inactive). The GI50 [24] was > 100000 nM (inactive), the GI50 [25] was > 100000 nM (inactive) and the GI50 [26] was > 100000 nM (inactive). For the same molecule, the GI50 [27] was > 100000 nM (inactive), the GI50 [28] was > 100000 nM (inactive) and the GI50 [29] was > 100000 nM (inactive). For the same molecule, the GI50 [30] was > 100000 nM (inactive), the GI50 [32] was > 100000 nM (inactive) and the GI50 [34] was > 100000 nM (inactive). The GI50 [36] was > 100000 nM (inactive), the GI50 [65] was > 100000 nM (inactive) and the GI50 [38] was > 100000 nM (inactive). For the same molecule, the GI50 [39] was over 100000 nM, the GI50 [40] was > 100000 nM (inactive) and the GI50 [41] was > 100000 nM (inactive). The GI50 [42] was > 100000 nM (inactive), the GI50 [43] was > 100000 nM (inactive) and the GI50 [44] was > 100000 nM (inactive). The GI50 [45] was > 100000 nM (inactive), the GI50 [48] was 61800 nM (inactive) and the GI50 [49] was > 100000 nM (inactive). For the same molecule, the GI50 [50] was > 100000 nM (inactive), the GI50 [52] was > 100000 nM (inactive) and the GI50 [53] was > 100000 nM (inactive). For the same molecule, the GI50 [54] was > 100000 nM (inactive), the GI50 [56] was > 100000 nM (inactive) and the GI50 [57] was > 100000 nM (inactive). The GI50 [59] was > 100000 nM (inactive), the GI50 [66] was > 100000 nM (inactive) and the GI50 [67] was > 100000 nM (inactive). The GI50 [62] was > 100000 nM (inactive).
